The subject of data set [1] is ALS patients. The conditions noted are these: DM up to about 300 mg/day or higher; quinidine in prolonged QT interval; cited from earlier work.
The test system of data set [2] is debrisoquin hydroxylase. Briefly: Urinary DM/DR ratio with other antioxidants in specific patients (Example 5). The conditions noted are these: urine, HPLC; preliminary; one value per patient.
Description: The second method involves sampling body fluids to compare the concentrations of DM and its primary metabolite, dextrorphan (DR). Although blood concentrations can be directly evaluated by drawing blood samples if desired, an easier and painless approach is to analyze urine samples. Blood or urine samples can be processed using methods such as high performance liquid chromatography (HPLC), as described in Example 5. […] The height of each peak, or the area under each peak, will indicate the quantity of each compound in the blood or urine sample. The heights of the DM and DR peaks are then divided, to determine the DM/DR ratio. The ratio which occurs after administration of a candidate antioxidant drug is compared to the DM/DR ratio in the same patient under control conditions (i.e., before administration of any antioxidant).
Preliminary Analysis of Other Antioxidants
To further evaluate that possibility, the Applicant arranged for chemical analyses of urine samples, using HPLC, in the labs of an independent investigator.
Data set [3] is described as follows: Plasma concentration of DM 10-12 hours after oral dosing, without and with quinidine (Examples 2 and 3). The data set is classed as in vivo, human. To be noted: 10-12 hours, one value per patient. Here is the method:
Plasma Concentrations of DM
Five patients were orally administered 120 mg of DM, with no co-administration of quinidine. Between 10 and 12 hours later, blood was sampled, blood plasma was isolated by centrifugation, and the plasma was analyzed to determine the DM concentration using the thebaine/HPLC method.
During a different week, the same patients were orally administered 60 mg of DM (half the control dosage) and 150 mg of quinidine. Between 10 and 12 hours later, blood was sampled and the plasma was analyzed for DM using thebaine/HPLC.
Additional studies were undertaken using a range of dosages of DM to establish a dose-response curve that correlates the quantity of DM orally administered to a patient with blood plasma concentrations 10 to 12 hours later (determined as described in Example 2). All patients received 150 mg of quinidine daily. The results of those studies are shown in graphical form in FIG. 2, with mean values shown as open squares and standard deviation ranges shown by vertical bars. The ascending line through the median values is a linear approximation; a curve based on more extensive data would probably show a horizontal asymptote.

Data set [4] deals with N-methyl-D-aspartate (NMDA) receptors. The conditions noted are these: reportedly; cited from earlier work.
Another data set relates to emotional lability. Briefly: Suppression of emotional lability in ALS patients. In kind it is in vivo, human. The text has this:
Emotional lability is a complex problem in which patients suffering from neurological damage (typically due to a stroke or head injury or a neurologic disease such as ALS or Alzheimer's disease) become unable to control spasmodic emotional outbursts such as explosive laughing or uncontrollable weeping. This discovery involving emotional lability is discussed in U.S. Pat. No. 5,206,248, which was also invented by the Applicant; the contents of that patent are incorporated by reference.
(§1) All patients who became involved in the study initially received DM and/or quinidine alone, to ensure that these drugs would not adversely affect them. The drugs were coadministered only after a tolerance and/or dosage range for one drug had been established for a patient.

A further data set deals with sigma receptors. To be noted: reportedly; cited from earlier work.
For data set [5] the following is noted: most people; cited from earlier work.
The test system of another data set is ALS. Briefly: Effect on progress of ALS. In kind it is in vivo, human. The conditions noted are these: loss of strength, slurring of speech, other muscular symptoms. The text has this: As mentioned above, DM is being studied as a possible treatment for neurodegenerative diseases such as Parkinson's disease, Alzheimer's disease, and ALS. Accordingly, the Applicant, a neurologist who specializes in working with ALS patients, undertook a study of DM to determine whether it might be able to retard the progress of ALS.
However, during the course of that study, other important findings emerged, as discussed below.

For data set [6], the system named is ALS patients. Description: Tolerance and side effects in ALS patients and control subjects. In kind it is in vivo, human. The conditions noted are these: ALS patients and controls; drug(s) as labelled.
Description: as §1
However, quinidine is not pharmaceutically acceptable by all patients.

Data set [7] deals with debrisoquin hydroxylase. Description: Urinary DM/DR ratio after oral dextromethorphan without and with quinidine (Example 1). In kind it is in vivo, human. The conditions noted are these: ALS patients. Here is the method: Since the research that led to this invention was done by a neurologist who was initially interested in finding out whether DM might be able to retard the progress of ALS, the initial studies were done on patients suffering from ALS, most of whom are adults more than 50 years old.
Six patients suffering from ALS were administered orally a single 60 mg dextromethorphan dose. Several hours later, a urine sample was collected, and the urine concentrations of dextromethorphan (DM) and dextrorphan (DR) were measured as described below to determine a DM/DR ratio. […] In a different week, 60 mg of DM and 150 mg of quinidine were orally administered to the same patients, and urinary DM and DR levels and DM/DR ratios were determined again.
DM and DR urinary levels without quinidine were determined by adding […] of thebaine as an internal standard to 1 mL of urine. To this was added 2000 units of beta-glucuronidase in 1 mL of acetate buffer (0.1M, pH 5.0). The mixture was incubated for 18 hours at 37° C. and then extracted by adding 1 mL of phosphate buffer (pH 12, 0.10M) and 7 mL of n-butanol/hexane (10:90 v/v). After mixing and centrifugation, the organic layer was transferred to a clean tube and acidified with 400 uL of 0.01 N HCL. 20 microliters (uL) of aqueous phase was injected into a high performance liquid chromatography (HPLC) system. The HPLC used a phenyl column equilibrated with a mobile phase of acetonitrile:water (51:49, v/v) containing 10 mM KHPO4, 10 mM hexane sulfonic acid, pH 4.0 (flow rate 1.2 mL/min). Detection of thebaine, dextromethorphan and dextrorphan was achieved by fluorescence (Kratos FS-980 Fluorometer) with an excitation wavelength of 228 nm and no emission cutoff filter.
A gas chromatograph/mass spectroscopy (gc/ms) assay was employed for determining dextromethorphan and dextrorphan levels in the presence of quinidine. Briefly, 0.5 ml urine samples were spiked with 500 nanograms (ng) of dimethacrine. The urine pH was adjusted to 5.0 with 0.1M acetate buffer (usually about 1.0 ml), and beta-glucuronidase was added (2000 units/ml urine). […]

Data set [8] relates to neuronal calcium channels. The conditions noted are these: reportedly, Carpenter et al 1988, cited from earlier work.
The test system of another data set is dermatitis. Briefly: Suppression of dermatitis (lichen planus; severe intermittent dermatitis) in patients. The data set is classed as in vivo, human. To be noted: patients treated with DM alone. The text has this:
Suppression of Dermatitis
During an initial examination, the Applicant discovered that patient two, a Caucasion person who was suffering from ALS, suffered from a severe dermatologic condition involving lesions which appear in relatively small purplish patches ("polygonal papules"). Their condition had recently been diagnosed as lichen planus. The etiology is unknown, although a variety of drugs reportedly can aggravate this condition. The patient reported that the lesions were severely itchy, and they had been suffering from it for roughly ten years. They had been prescribed a number of drugs (including various steroids such as prednisone) in an effort to control the itching; the most recent prescription was "Doxepin," a tricyclic antidepressant. None of those agents offered much relief.
The patient began an initial treatment of quinidine alone (150 mg/day) for a week.
The specialist carried out a preliminary test involving DM and quinidine on a person who suffered from severe but intermittent dermatitis.

“And” between values parts separate entries of the source, which are not always exact repeats. Equal values may be shown once. Read-outs that look alike come from different tables or passages of the source.

As to `COc1ccc2c(c1)[C@@]13CCCC[C@H]1[C@@H](C2)N(C)CC3` [DM, (+)-3-methoxy-N-methylmorphinan], the “Adverse effects (general knowledge)” value in the data set with ALS patients [1] is on record as “any adverse effects (such as dizziness or nausea) usually disappear quickly when the dosage is lowered”. Also, in the data set on debrisoquin hydroxylase [2], the “DM/DR ratio, no antioxidant” value was 0.02 and 0.00 and 0.06 and 0.03. In addition, in data set [3] (60 mg DM once oral + quinidine 150 mg), the “DM plasma level, with quinidine” value is 33 ng/mL and 29.7 ng/mL and 29.0 ng/mL and 28.8 ng/mL and 45.6 ng/mL. In [3] (120 mg/day DM oral, quinidine dose 0), the “DM plasma level, no quinidine” value is 9.3 ng/mL and 16.5 ng/mL and 6.05 ng/mL. Besides, the “Activity at NMDA receptors” value in data set [4] is “NMDA antagonists”. In addition, the “Reduction of emotional lability symptoms” value in the data set with emotional lability was “not observed in any patients who received DM alone”. The “Activity at sigma receptors” value in the data set with sigma receptors is “sigma agonists”. In data set [5], the “Disappearance from the bloodstream” value was “disappears fairly rapidly from the bloodstream”. The “Slowing of progressive ALS symptoms” value in the data set on ALS is “not able to slow down the progressive loss of strength, slurring of speech, and other muscular symptoms”. Moreover, in the data set with ALS patients [6], the Adverse side effects entry is reported as “no ill effects”. The “Metabolism of DM in ALS patients vs healthy adults” value in the data set with debrisoquin hydroxylase [7] is “No difference in the metabolism”. For the same compound, the “Activity at neuronal calcium channels” value is “suppress neural activity mediated by neuronal calcium channels” in data set [8] (listed as Dextromethorphan) and “calcium channel antagonists” in [8] (listed as dextromethorphan). In addition, the “Therapeutic benefits (emotional lability and dermatitis)” value in the data set on dermatitis is on record as “not detectable”.

The values above are taken from patent US5366980A, “Use of dextromethorphan and an oxidase inhibitor to treat dermatitis” (priority 1993, dated 1994).
